Measurements as given in patent US20200171030A1, “DUAL INHIBITORS OF ALK5 AND P38A MAP KINASE” (INTEGRAL BIOSCIENCES PRIVATE LIMITED, priority 2018, published 2020).
Structures can show the parent of a compound that is named as a salt.

Experiments:
TGFBR1 (ALK5) = biological target: T1, TGFBR1 (ALK5) (Homo sapiens, UniProt P36897); test: ALK5 kinase assay (LanthaScreen Terbium labeled TR-FRET); type: biochemical; details: for inhibition at 0.1 µM: 100 nM concentration of compound, read-out: Enzyme Activity TGFBR1 (ALK5) % Inhibition at 100 nM; for IC50: Table 5, read-out: ALK5 IC50
T1 sequence (P36897 34-503): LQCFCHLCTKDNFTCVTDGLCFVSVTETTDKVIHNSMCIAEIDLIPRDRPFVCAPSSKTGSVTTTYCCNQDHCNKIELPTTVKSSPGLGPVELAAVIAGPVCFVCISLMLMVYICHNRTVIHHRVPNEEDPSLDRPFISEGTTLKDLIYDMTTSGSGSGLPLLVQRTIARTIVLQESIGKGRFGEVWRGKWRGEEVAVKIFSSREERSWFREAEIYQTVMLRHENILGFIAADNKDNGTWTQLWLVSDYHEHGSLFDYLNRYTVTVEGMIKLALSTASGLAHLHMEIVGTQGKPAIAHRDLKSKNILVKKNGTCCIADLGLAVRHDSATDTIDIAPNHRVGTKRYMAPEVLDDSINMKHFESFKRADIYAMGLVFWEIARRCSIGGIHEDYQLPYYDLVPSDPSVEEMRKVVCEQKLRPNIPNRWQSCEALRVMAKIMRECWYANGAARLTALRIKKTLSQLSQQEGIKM
Protocol: ALK5 Kinase Assay for IC50 Determination:
IC50 values of compounds against TGFβ kinase was determined by LanthaScreen™ Terbium Labeled TR-FRET assay. Kinase assays were performed in IX kinase buffer (# PV6135, Invitrogen, Life Technologies Grand Island, N.Y.) where total reaction volume was 10 μL in low-volume 384-well plates (#4511,Corning). Serially diluted compounds (3-fold) were incubated with TGFβ kinase (6 nM) for 10 min, following which a mixture of ATP (10 μM) (# A1852, Sigma, St-Louis, Mo.) and fluorescent-PolyGT substrate (200 nM) (# PV3610, Invitrogen, Life Technologies Grand Island, N.Y.) was added and incubated in dark at room temperature for 1 h. After 1 h, 10 μL stop solution containing Terbium labeled antibody (4 nM) (# PV3529, Invitrogen, Life Technologies Grand Island, N.Y.) and EDTA (# E5134, Sigma, St-Louis, Mo.) (20 mM) in TR-FRET dilution buffer (# PV3574, Invitrogen, Life Technologies Grand Island, N.Y.) was added. Readings were taken in a Synergy Neo Plate reader (BioTek, Winooski) at single excitation of 340 nm and Dual emission at 495 nm and 520 nm respectively.
The % activity of test samples was calculated as (Sample−Min)×100/(Max−Min). [Max: DMSO control, complete reaction with enzyme with DMSO and Min: No enzyme with DMSO]. Percent inhibition (100-% activity) was fitted to the “four-parameter logistic model” in XLfit for determination of IC50 values.

MAPK14/p38α kinase = biological target: T2, MAPK14/p38α kinase (Homo sapiens, UniProt Q16539); test: MAPK14/p38α kinase assay (LanthaScreen TR-FRET); type: biochemical; details: 100 nM concentration of compound; read-out: Enzyme Activity MAPK14 (p38 alpha) % Inhibition at 100 nM
T2 construct: purchased ThermoFisher PV3304
T2 sequence (Q16539 whole entry): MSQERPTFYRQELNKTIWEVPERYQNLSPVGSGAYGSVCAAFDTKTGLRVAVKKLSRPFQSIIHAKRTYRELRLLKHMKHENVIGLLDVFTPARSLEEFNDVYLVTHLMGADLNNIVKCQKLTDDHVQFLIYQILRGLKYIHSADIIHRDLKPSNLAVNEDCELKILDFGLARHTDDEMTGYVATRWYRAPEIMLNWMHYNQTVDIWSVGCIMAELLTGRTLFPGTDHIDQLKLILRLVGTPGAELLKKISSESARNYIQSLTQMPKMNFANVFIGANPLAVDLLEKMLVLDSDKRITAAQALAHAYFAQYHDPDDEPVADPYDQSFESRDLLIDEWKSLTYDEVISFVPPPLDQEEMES
Protocol: MAPK14/p38α Kinase Assay for IC50 Determination:
IC50 values of compounds against MAPK14/P38α kinase were determined by Lanthascreen based TR-FRET assay. Kinase reactions were performed in a 10 μL volume in low-volume 384-well plates. The concentration of substrate was maintained at 400 nM in the assay, and the kinase reaction buffer (1×; Cat # PV3189, ThermoFisher) consisted of 50 mM HEPES pH 7.5, 0.01% BRIJ-35, 10 mM MgCl2, and 1 mM EGTA. Serially diluted compounds (3-fold) in DMSO (0.5% in final reaction) were incubated with cocktail of MAPK14/p38α kinase (20 ng/ml; Cat # PV3304, ThermoFisher), Substrate GFP-ATF2 (19-96), (0.4 μM; Cat # PV4445, ThermoFisher), ATP (90 μM; Cat # PV3227, ThermoFisher) and buffer. Kinase reactions were allowed to proceed for 1 hour at room temperature before EDTA (10 mM; Cat # P2825, ThermoFisher) and LanthaScreen™ Tb-antipATF2 (pThr71) Antibody (2 nM; Cat # PV4451, ThermoFisher) in TR-FRET dilution buffer (IX; Cat # PV3574, ThermoFisher) were added. The plate was allowed to incubate at room temperature for 30 minutes before being read on a BMG Pherastar plate reader using the LanthaScreen™ filter block for LanthaScreen™ TR-FRET.
The resulting TR-FRET emission ratio was plotted against the concentration of inhibitor, and the data was fit to a sigmoidal dose-response curve with a variable slope. The IC50 for the inhibitor was calculated from the curve.

Panc-1 = test: Cell viability assay (resazurin, 96 hr) in Panc-1; type: cell-based; details: Homo sapiens; Panc-1 pancreatic cell line, 96 hr exposure; read-out: Panc-1_Cell Viability_IC50
Protocol: (§1) Cell Viability Assay in MIA PaCa-2 and Panc-1
(§2) MIA PaCa-2 (ATCC® CRL-1420™) and Panc-1 (CRL-1469™), both pancreatic cell lines were seeded in their respective medium (DMEM, Cat #10569044 with 10% FBS, Cat #16000044; Gibco for Panc-1 and an additional 2.5% Horse Serum, Cat #16050122; Gibco for MIA PaCa-2) at a cell count of 3000 cells per 100 μl per well in a 96 well edge plate (167425; ThermoFisher). Cells were allowed to grow at 37° C. for 24 hr in 5% CO2 (culture conditions) in a Nuaire incubator (humidified). Serially diluted compounds (100 μl) were added to the culture plate 24 hr later and the cultures (MIA PaCa-2 and Panc-1) were further incubated in culture conditions for 96 hr. Experiment was terminated at the completion of 96 hr exposure to the drug by replacing the medium with 100 μl of 1 mM of resazurin (R7017; Sigma) prepared in culture medium and the plates were further incubated in culture conditions for 4 hr. Fluorescence was then measured using a multimodal plate reader (Biotek Synergy Neo) at an excitation wavelength of 535 nm and emission wavelength of 590 nm to obtain relative fluorescence units. Data analysis was done by subtracting the background fluorescence (only medium blank) value from each reading and then normalizing with the vehicle control (DMSO treated cells) to obtain percent survival/proliferation. Percent survival at different doses was used to calculate IC50 by fitting the curve to the “four-parameter variable slope logistic model” using Prism Graph Pad.

MIA PaCa-2 = test: Cell viability assay (resazurin, 96 hr) in MIA PaCa-2; type: cell-based; details: Homo sapiens; MIA PaCa-2 pancreatic cell line, 96 hr exposure; read-out: MiaPaCa-2_Cell Viability_IC50
Protocol: as §1, §2

SMILES	inhibition at 0.1 µM (TGFBR1 (ALK5))	inhibition at 0.1 µM (MAPK14/p38α kinase)	IC50 (Panc-1)	IC50 (MIA PaCa-2)	IC50 (TGFBR1 (ALK5))
CC(C)c1cnc(-c2ccc(F)cc2)nc1Nc1ccnc2[nH]cc(N3CCNCC3)c12 [Compound No. 1, N-(2-(4-fluorophenyl)-5-isopropylpyrimidin-4-yl)-3-(piperazin-1-yl)-1H-pyrrolo [2,3-b] pyridin-4-amine hydrochloride]	99%	61%	2.31 µM	1.63 µM	
CC(C)c1cnc(-c2ccc(F)cc2)nc1Nc1ccnc2[nH]cc(N3CCN(C)CC3)c12 [Compound No. 2, N-(2-(4-fluorophenyl)-5-isopropylpyrimidin-4-yl)-3-(4-methylpiperazin-1-yl)-1H-pyrrolo [2,3-b] pyridin-4-amine hydrochloride]	84%	19%	2.21 µM	7.7 µM	
CC(C)c1cnc(-c2ccc(F)cc2)nc1Nc1ccnc2[nH]cc(N3CCCCC3)c12 [Compound No. 3, N-(2-(4-fluorophenyl)-5-isopropylpyrimidin-4-yl)-3-(piperidin-1-yl)-1H-pyrrolo [2,3-b] pyridin-4-amine hydrochloride]	72%	42%	> 27 µM	> 30 µM	
CC(C)c1cnc(-c2ccc(F)cc2)nc1Nc1ccnc2[nH]cc(N3CCNCC3C)c12 (stereo not shown) [Compound No. 4, N-(2-(4-fluorophenyl)-5-isopropylpyrimidin-4-yl)-3-(2-methylpiperazin-1-yl)-1H-pyrrolo[2,3-b]pyridin-4-amine hydrochloride]	94%	72%	1.88 µM	1.54 µM	
CC(C)c1cnc(-c2ccc(F)cc2)nc1Nc1ccnc2[nH]cc(C3(O)CCNCC3)c12 [Compound No. 13, 4-(4-((2-(4-fluorophenyl)-5-isopropylpyrimidin-4-yl)amino)-1H-pyrrolo[2,3-b]pyridin-3-yl)piperidin-4-ol hydrochloride]			17.9 µM	10.9 µM	0.108 µM
CC(C)c1cnc(-c2ccc(F)cc2)nc1Nc1ccnc2[nH]cc(N3CCOCC3C)c12 (stereo not shown) [Compound No. 14, N-(2-(4-fluorophenyl)-5-isopropylpyrimidin-4-yl)-3-(3-methylmorpholino)-1H-pyrrolo [2,3-b] pyridin-4-amine hydrochloride]			11.2 µM	11.1 µM	3.71 µM
CC(C)c1cnc(-c2ccc(F)cc2)nc1Nc1ccnc2[nH]cc(N3CCC(N)CC3)c12 [Compound No. 15, 3-(4-aminopiperidin-1-yl)-N-(2-(4-fluorophenyl)-5-isopropylpyrimidin-4-yl)-1H-pyrrolo[2,3-b]pyridin-4-amine hydrochloride]			2.96 µM	5.5 µM	0.245 µM
CC(C)c1cnc(-c2ccc(F)cc2)nc1Nc1ccnc2[nH]cc(C(=O)C(=O)N(C)C)c12 [Compound No. 16, 2-(4-((2-(4-fluorophenyl)-5-isopropylpyrimidin-4-yl)amino)-1H-pyrrolo[2,3-b]pyridin-3-yl)-N,N-dimethyl-2-oxoacetamide]			17.1 µM	10.2 µM	1.92 µM
CCCCNC(=O)C(=O)c1c[nH]c2nccc(Nc3nc(-c4ccc(F)cc4)ncc3C(C)C)c12 [Compound No. 20, N-butyl-2-(4-(2-(4-fluorophenyl)-5-isopropylpyrimidin-4-ylamino)-1H-pyrrolo [2,3-b]pyridin-3-yl)-2-oxoacetamide hydrochloride]			> 30 µM	> 30 µM	> 5 µM
CNC(=O)C(=O)c1c[nH]c2nccc(Nc3cc(-c4ccc(F)cc4)ncc3C(C)C)c12 [Compound No. 21, 2-(4-((2-(4-fluorophenyl)-5-isopropylpyridin-4-yl)amino)-1H-pyrrolo[2,3-b]pyridin-3-yl)-N-methyl-2-oxoacetamide hydrochloride]			12.7 µM	10.7 µM	0.574 µM
CC(C)c1cnc(-c2ccc(F)cc2)nc1Nc1ccnc2[nH]cc(C(=O)C(=O)N3CCOCC3)c12 [Compound No. 22, 1-(4-(2-(4-fluorophenyl)-5-isopropylpyrimidin-4-ylamino)-1H-pyrrolo [2,3-b]pyridin-3-yl)-2-morpholinoethane-1,2-dione hydrochloride]			14.2 µM	> 30 µM	3.95 µM
CC(C)c1cnc(-c2ccc(F)cc2)nc1Nc1ccnc2[nH]cc(C(=O)C(=O)N3CCN(C)CC3)c12 [Compound No. 24, 1-(4-(2-(4-fluorophenyl)-5-isopropylpyrimidin-4-ylamino)-1H-pyrrolo [2,3-b]pyridin-3-yl)-2-(4-methylpiperazin-1-yl) ethane-1,2-dione hydrochloride]			> 30 µM	0.77 µM	1.5 µM
COc1ccc(-c2ncc(C(C)C)c(Nc3ccnc4[nH]cc(C(=O)C(N)=O)c34)n2)cc1 [Compound No. 25, 2-(4-((5-isopropyl-2-(4-methoxyphenyl)pyrimidin-4-yl)amino)-1H-pyrrolo[2,3-b]pyridin-3-yl)-2-oxoacetamide hydrochloride]			> 30 µM	> 30 µM	2.57 µM
CNC(=O)C(=O)c1c[nH]c2nccc(Nc3nc(-c4ccc(F)cc4)ncc3C(C)C)c12 [Compound No. 29, 2-(4-((2-(4-fluorophenyl)-5-isopropylpyrimidin-4-yl)amino)-1H-pyrrolo[2,3-b]pyridin-3-yl)-N-methyl-2-oxoacetamide hydrochloride]			26 µM	23 µM	2.77 µM
